In ChEMBL document CHEMBL4390638, “SYA 013 analogs as moderately selective sigma-2 (σ2) ligands: Structure-affinity relationship studies” (Bioorg Med Chem, 2019):

Key:
[1] = target: Sigma non-opioid intracellular receptor 1 (Homo sapiens, UniProt Q99720); assay: Displacement [3H]-Pentazocine from sigma 1 receptor (unknown origin) expressed in HEK cell membranes
[2] = target: Sigma intracellular receptor 2 (Homo sapiens, UniProt Q5BJF2); assay: Displacement [3H]-DTG from sigma 2 receptor (unknown origin) expressed in HEK cell membranes
Homo sapiens = species on record: Homo sapiens; assay: Selectivity index, ratio of Ki for displacement [3H]-Pentazocine from sigma 1 receptor (unknown origin) expressed in HEK cell membranes to Ki for [3H]-DTG from sigma 2 receptor (unknown origin) expressed in HEK cell membranes

Sigma non-opioid intracellular receptor 1, sequence (Q99720 whole entry): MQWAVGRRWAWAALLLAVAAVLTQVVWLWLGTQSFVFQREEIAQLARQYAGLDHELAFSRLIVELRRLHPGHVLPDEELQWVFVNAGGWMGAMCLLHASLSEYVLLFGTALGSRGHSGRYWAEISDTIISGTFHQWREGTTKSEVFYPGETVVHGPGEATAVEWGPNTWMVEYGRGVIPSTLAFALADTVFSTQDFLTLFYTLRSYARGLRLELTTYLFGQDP
Sigma intracellular receptor 2, sequence (Q5BJF2 whole entry): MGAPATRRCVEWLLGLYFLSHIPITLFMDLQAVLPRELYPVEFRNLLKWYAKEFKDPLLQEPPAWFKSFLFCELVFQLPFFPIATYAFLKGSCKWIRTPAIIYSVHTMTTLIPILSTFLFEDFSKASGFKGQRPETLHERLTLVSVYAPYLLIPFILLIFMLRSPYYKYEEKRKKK

SMILES | Ki ([1]; read-out: Ki) | Ki [2] | Ratio Ki (Homo sapiens) | Ki ([1]; read-out: pKi (converted))
Fc1ccc(CCCCN2CCN(c3ccc(Cl)cn3)CC2)cc1 | 95 nM | 43 nM | 2.2 | 
O/N=C(/CCCN1CCCN(c2ncccn2)CC1)c1ccc(F)cc1 | 148 nM | 26 nM | 5.7 | 
O=C(CCCN1CCCN(c2ncccn2)CC1)c1ccc(F)cc1 | 63 nM | 44 nM | 1.4 | 
O/N=C(/CCCN1CCCN(c2ccccn2)CC1)c1ccc(F)cc1 | 70 nM | 13.1 nM | 5.3 | 
c1ccc(OCCCN2CCN(c3ccccc3)CC2)cc1 | 77.1 nM | 25.1 nM | 3.1 | 
OC1(c2ccc(Cl)cc2)CC2CCC(C1)N2CCCOc1ccc(F)cc1 (stereo unspecified) | 166 nM | 18 nM |  | 
OC1(c2ccc(Cl)cc2)CC2CCC(C1)N2CCCCc1ccc(F)cc1 (stereo unspecified) | 22 nM | 27 nM | 0.8 | 
O/N=C(/CCCN1CCCN(c2ccc(Cl)cn2)CC1)c1ccc(F)cc1 | 113 nM | 2.7 nM | 41.8 | 
Fc1ccc(SCCCN2CCCN(c3ccc(Cl)cn3)CC2)cc1 | 7.2 nM | 2.2 nM | 3.3 | 
Fc1ccc(OCCCN2CCN(c3ccccc3)CC2)cc1 | 41.5 nM | 5.12 nM | 8.1 | 
Fc1ccc(CCCCN2CCN(c3ccc(Cl)cc3)CC2)cc1 | 36 nM |  |  | 
Fc1ccc(CCCCN2CCCN(c3ccc(Cl)cc3)CC2)cc1 | 3.6 nM | 8.5 nM | 0.4 | 
OC1(c2ccc(Cl)cc2)CC2CCC(C1)N2CCCSc1ccc(F)cc1 (stereo unspecified) | 81 nM |  |  | 
OC1(c2ccc(Cl)cc2)CC2CCC(C1)N2CCCSc1ccccc1F (stereo unspecified) | 57 nM | 2.2 nM | 25.9 | 
Clc1ccc(N2CCN(CCCOc3ccccc3)CC2)cc1 | 51.7 nM | 33 nM | 1.6 | 
O=C(CCCN1CCN(c2ccccn2)CC1)c1ccc(F)cc1 [AZAPERONE] | 403 nM | 52 nM | 7.8 | 
O=C(CCCN1CCCN(c2ccccn2)CC1)c1ccc(F)cc1 |  | 32 nM | 14 | 457 nM
[O-][S+](CCCN1CCN(c2ccc(Cl)cc2)CC1)c1ccc(F)cc1 (stereo unspecified) | 1150 nM | 600 nM | 1.9 | 
O=C(CCCN1CCCN(c2ccc(Cl)cn2)CC1)c1ccc(F)cc1 | 30 nM | 8 nM | 3.8 | 
OC1(c2ccc(Cl)cc2)CC2CCC(C1)N2CCCSc1cccc(F)c1 (stereo unspecified) | 71 nM | 8.1 nM | 8.8 | 
O=C(CCCN1CCN(c2ccc(Cl)cn2)CC1)c1ccc(F)cc1 | 25 nM | 8.4 nM | 3 | 
Fc1ccc(OCCCN2CCCN(c3ccc(Cl)cc3)CC2)cc1 | 2.9 nM | 5.9 nM | 0.5 | 
